Read-outs that look alike come from different tables or passages of the source.
Experiments:
[1] = test system: ovariectomized adult rats; assay: Vaginal cornification bioassay in ovariectomized rats; type: in vivo, rat; conditions: for Number of Rats Exhibiting Estrogenic Response/Number of Rats Treated: sc, Day 7
Description: Uterine weight increase in the rat is more commonly used as a measure of estrogenicity. […] In the early 1920s it was discovered that follicular fluid from the pig ovary contained a factor(s) that caused cornification/keratinization of the vaginal epithelium in the rat (Allen and Doisy, 1923, JAMA, 81, 819-821; Allen and Doisy, 1924, Am. J. Physiol., 69, 577-588). The so-called vaginal cornification response in rats subsequently provided a bioassay for testing estrogenicity. Vaginal epithelial cornification/keratinization in ovariectomized rats can be produced only by compounds considered to be true estrogens (Jones et al, 1973, Fert. Steril. 24, 284-291). […] Adult intact female CD rats were ovariectomized to induce estrogen deficiency. […] Castrate vaginal smears are indicative that complete ovariectomy was achieved. Treatment commenced following completion of the 7 days of smearing (day 0=first day of dosing). Animals were dosed, once daily for 7 consecutive days. Daily vaginal lavages continued to be obtained for 7 days after dosing was initiated in order to detect vaginal cornification, as an indication of an estrogenic response. A drop of vaginal washings was placed on a glass slide and examined by light microscopy to detect the presence or absence of cornified epithelial cells. Vaginal lavages were obtained prior to dosing on days 0-6 and prior to necropsy on day 7. The vaginal cornification bioassay was performed in order to determine the estrogenic profile of E4 when given subcutaneously (sc) to ovariectomized adult rats. E2 was used as a positive control. The vehicle (10% ethanol/sesame oil) served as the negative control. Steroids were dissolved in absolute ethanol and then brought to the final concentration with sesame oil (10% ethanol in sesame oil). […] The vaginal cornification bioassay was performed in order to determine the estrogenic profile of E4 when given orally (po) to ovariectomized adult rats. EE was used as a positive control. The vehicle (10% ethanol/sesame oil) served as the negative control. […]

[2] = Single rising oral dose study in healthy postmenopausal volunteers; type: in vivo, human
Experimental: To determine the bioavailability and elimination half-life of estetrol after oral dosing in humans a single rising dosing study was performed in healthy postmenopausal volunteers. Volunteers (n=6) were randomly assigned to 0.1, 1 or 10 mg estetrol and blood samples (18 per volunteer) were obtained over a period of 72 hours.
After thawing the plasma samples, liquid-liquid extraction (hexane and diethyl ether) was employed to prepare the estetrol-containing plasma samples for HPLC analysis (Perkin Elmer 200) and tandem mass spectrometry using a PE Sciex 4000 tandem mass spectrometer and APCI interface. With each sample batch, a calibration curve with 6 calibrators was recorded. The calibration curve was calculated using linear regression (correlation coefficient >0.98), which permitted quantitation of plasma concentrations.

human ERα = biological target: T1, human ERα (Homo sapiens, UniProt P03372); assay: Competitive steroid binding assay, ERα; conditions: relative preference for binding to ERα protein, from Ki values
T1 sequence (P03372 1-595): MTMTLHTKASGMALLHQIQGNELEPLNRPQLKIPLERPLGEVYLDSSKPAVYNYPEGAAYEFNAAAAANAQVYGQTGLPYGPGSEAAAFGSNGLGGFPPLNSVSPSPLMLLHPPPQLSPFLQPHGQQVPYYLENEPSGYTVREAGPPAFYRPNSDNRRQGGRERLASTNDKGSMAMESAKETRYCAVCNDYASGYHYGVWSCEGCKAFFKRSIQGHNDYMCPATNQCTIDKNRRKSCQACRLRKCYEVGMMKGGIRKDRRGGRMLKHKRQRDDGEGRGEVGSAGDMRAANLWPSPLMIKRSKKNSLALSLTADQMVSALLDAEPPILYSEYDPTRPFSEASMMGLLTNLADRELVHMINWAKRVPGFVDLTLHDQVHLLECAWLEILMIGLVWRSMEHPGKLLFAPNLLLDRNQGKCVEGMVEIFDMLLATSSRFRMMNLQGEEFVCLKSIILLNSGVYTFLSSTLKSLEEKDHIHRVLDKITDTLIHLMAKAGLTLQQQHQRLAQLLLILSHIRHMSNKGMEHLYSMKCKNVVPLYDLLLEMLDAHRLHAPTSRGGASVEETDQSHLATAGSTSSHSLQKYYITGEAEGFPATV

[3] = biological target: T2, human sex Hormone Binding Globulin (SHBG) (Homo sapiens, UniProt P04278); assay: Competitive steroid-binding assay for SHBG
T2 construct: made in house; host or cells: transgenic mouse (serum)
T2 sequence (P04278 30-402): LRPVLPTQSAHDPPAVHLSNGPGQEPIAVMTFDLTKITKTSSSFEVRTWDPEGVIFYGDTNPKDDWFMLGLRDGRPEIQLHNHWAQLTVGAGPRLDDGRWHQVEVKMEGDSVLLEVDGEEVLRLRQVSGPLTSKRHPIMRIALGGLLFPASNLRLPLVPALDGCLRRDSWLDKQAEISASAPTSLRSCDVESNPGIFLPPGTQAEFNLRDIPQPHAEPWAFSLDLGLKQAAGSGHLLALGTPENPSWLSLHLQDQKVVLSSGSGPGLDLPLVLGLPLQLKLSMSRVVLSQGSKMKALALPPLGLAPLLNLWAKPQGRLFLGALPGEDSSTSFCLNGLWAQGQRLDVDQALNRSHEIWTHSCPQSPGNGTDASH
Experimental: Human SHBG was treated for 30 min at room temperature with a dextran-coated charcoal (DCC) suspension in phosphate buffered saline (PBS) to remove any steroid ligand. After centrifugation (2,000×g for 10 min) to sediment the DCC, the supernatant containing the human SHBG was diluted in PBS to a concentration of 1 nM based on its steroid binding capacity.
The average amounts of [^3H]labeled ligands bound to SHBG at each concentration of competitor (B) were expressed as a percentage of the average amounts of [^3H]labeled ligands bound to SHBG in the absence of competitor (B0), and were plotted against the concentration of competitor in each assay tube.

[4] = test system: B10.PL mice with experimental autoimmune encephalomyelitis (EAE); assay: MBP induced EAE in B10.PL mice; type: in vivo, mouse
immature rat uterus = conditions: subcutaneously administered, cited from earlier work
[5] = test system: estrogen receptors in the human endometrium; conditions: cited from earlier work
[6] = ovariectomized female B10.PL mice, sc and oral 0.1-3.0 mg/kg/day, 40 days

## C[C@]12CC[C@@H]3c4ccc(O)cc4CC[C@H]3[C@@H]1[C@@H](O)[C@@H](O)[C@@H]2O [E4, 1,3,5 (10)-estratrien-3,15α,16α,17β-tetrol]
[1]; amount of animals responding at days 1-3, even at low doses (e.g. 0.1 mg/kg/day)
  onset of vaginal cornification, po versus sc: faster in po-treated than in sc-treated animals
[1]; 1.0 mg/kg/day, 1 mg/kg/day
  Number of Rats Exhibiting Estrogenic Response/Number of Rats Treated: all rats
[1]; 3.0 mg/kg/day, 3 mg/kg/day
  Number of Rats Exhibiting Estrogenic Response/Number of Rats Treated: all rats
[2]; female, human, plasma, po, human postmenopausal subjects, read-out: elimination half-life
  half-life: > 15 h
[2]; oral single dose 0.1, 1, 10 mg, postmenopausal volunteers
  tolerability: Good tolerability
[2]; oral single dose 0.1 to 10 mg, postmenopausal volunteers
  AUC dose-linearity: good dose-linearity
Human ERα
  Relative ERα/ERβ preference: 400%
[3]; [3H]DHT as labeled ligand
  binding to human SHBG: does not bind at all
[3]; [3H]estradiol as labeled ligand
  binding to human SHBG: does not bind at all
[3]; comparison among tested steroids, order ethinylestradiol, 17β-estradiol, testosterone, 5α-dihydrotestosterone
  relative binding affinity for human SHBG: negligible
[4]; non-castrated female and male B10.PL mice, daily sc and/or oral
  symptoms and severity of EAE: dose-dependently alleviate symptoms and severity of EAE
[4]; [6]
  number of afflicted animals and/or severity of EAE symptoms: dose-dependently reduced
  onset of EAE disease symptoms: dose-dependent effects in delaying the onset of EAE disease symptoms
Immature rat uterus; Holinka et al. 1979
  uterotrophic activity: very weak uterotrophic activity
Immature rat uterus; Holinka et al. 1980
  uterotrophic activity: very weak uterotrophic activity
[5]; Tseng et al. 1976
  relative binding constant compared to 17β-estradiol (100%): 6.25%
[5]; Tseng et al. 1978
  Relative binding to estrogen receptors, of 17β-estradiol: 1.5%
